Laboratory results from patent publication US5126336A, “Antibiotic C-3 catechol-substituted cephalosporin compounds, compositions and method of use thereof” (Bristol-Myers Squibb Company, priority 1990, dated 1992).
Values after ≈ are worked out from the molar mass of the structure shown. Like-named read-outs stand apart in the source and are kept apart here.

Tests used:
Assay in all cases: MIC, agar dilution
Format in all cases: cell-based
B. subtilis PCI 219 = conditions: Bacillus subtilis, PCI219, Mueller-Hinton agar pH 7.2, 32° C., 18 hr, 10^6 cells/ml
Method: (§1) Minimum inhibitory concentrations (MICs) of the present series of cephalosporins were determined against 32 strains of test organisms by two-fold serial agar dilution method in Mueller-Hinton agar. Geometric means of MICs were calculated against six groups of the test organisms which are classified as follows and summarized in Table 1.
(§2) Medium; MuellerHinton agar (pH = 7.2)
(§3) Incubation temperature: 32° C., 18 hr
(§4) Inoculum size; 10^6 cells/ml

C. freundii GN 7391 = conditions: Citrobacter freundii, GN7391, Mueller-Hinton agar pH 7.2, 32° C., 18 hr, 10^6 cells/ml
Method: as §1, §2, §3, §4

C. terrigena IFO 12685 = conditions: Mueller-Hinton agar pH 7.2, 32° C., 18 hr, 10^6 cells/ml
Method: as §1, §2, §3, §4

E. cloacae IPM-12 = conditions: Enterobacter cloacae, IPM12, Mueller-Hinton agar pH 7.2, 32° C., 18 hr, 10^6 cells/ml
Method: as §1, §2, §3, §4

E. coli 255 = conditions: Escherichia coli, Mueller-Hinton agar pH 7.2, 32° C., 18 hr, 10^6 cells/ml
Method: as §1, §2, §3, §4

E. faecalis A9808 = conditions: Enterococcus faecalis, Mueller-Hinton agar pH 7.2, 32° C., 18 hr, 10^6 cells/ml
Method: as §1, §2, §3, §4

E. faecium A24817 = conditions: Enterococcus faecium, Mueller-Hinton agar pH 7.2, 32° C., 18 hr, 10^6 cells/ml
Method: as §1, §2, §3, §4

K. pneumoniae PCI 602 = conditions: Klebsiella pneumoniae, PCI602, Mueller-Hinton agar pH 7.2, 32° C., 18 hr, 10^6 cells/ml
Method: as §1, §2, §3, §4

M. luteus 1001 = conditions: Micrococcus luteus, Mueller-Hinton agar pH 7.2, 32° C., 18 hr, 10^6 cells/ml
Method: as §1, §2, §3, §4

M. morgani 1510/9 = conditions: Mueller-Hinton agar pH 7.2, 32° C., 18 hr, 10^6 cells/ml
Method: as §1, §2, §3, §4

M. morgani 1510 = conditions: Mueller-Hinton agar pH 7.2, 32° C., 18 hr, 10^6 cells/ml
Method: as §1, §2, §3, §4

P. aeruginosa A20599 = conditions: Pseudomonas aeruginosa, Mueller-Hinton agar pH 7.2, 32° C., 18 hr, 10^6 cells/ml
Method: as §1, §2, §3, §4

P. aeruginosa IPM-8 = conditions: Pseudomonas aeruginosa, IPM8, Mueller-Hinton agar pH 7.2, 32° C., 18 hr, 10^6 cells/ml
Method: as §1, §2, §3, §4

P. aeruginosa IPM-9 = conditions: Pseudomonas aeruginosa, IPM9, Mueller-Hinton agar pH 7.2, 32° C., 18 hr, 10^6 cells/ml
Method: as §1, §2, §3, §4

P. aeruginosa KKA 19 = conditions: Pseudomonas aeruginosa, KKA19, Mueller-Hinton agar pH 7.2, 32° C., 18 hr, 10^6 cells/ml
Method: as §1, §2, §3, §4

P. cepacia A21213 = conditions: Burkholderia cepacia, Mueller-Hinton agar pH 7.2, 32° C., 18 hr, 10^6 cells/ml
Method: as §1, §2, §3, §4

P. cepacia No. 651 = conditions: Burkholderia cepacia, Mueller-Hinton agar pH 7.2, 32° C., 18 hr, 10^6 cells/ml
Method: as §1, §2, §3, §4

P. mirabilis IFO-2849 = conditions: Proteus mirabilis, IFO2849, Mueller-Hinton agar pH 7.2, 32° C., 18 hr, 10^6 cells/ml
Method: as §1, §2, §3, §4

P. rettgeri IPM-14 = conditions: Providencia rettgeri, IPM14, Mueller-Hinton agar pH 7.2, 32° C., 18 hr, 10^6 cells/ml
Method: as §1, §2, §3, §4

P. vulgaris IPM-13 = conditions: Proteus vulgaris, IPM13, Mueller-Hinton agar pH 7.2, 32° C., 18 hr, 10^6 cells/ml
Method: as §1, §2, §3, §4

S. aureus 209P = conditions: Staphylococcus aureus
Method: as §1, §2, §3, §4

S. aureus 4-1015 (MRSA) = conditions: Staphylococcus aureus, Mueller-Hinton agar pH 7.2, 32° C., 18 hr, 10^6 cells/ml
Method: as §1, §2, §3, §4

S. aureus IPM-24 (MRSA) = conditions: Staphylococcus aureus, Mueller-Hinton agar pH 7.2, 32° C., 18 hr, 10^6 cells/ml
Method: as §1, §2, §3, §4

S. epidermidis 11-1168 = conditions: Staphylococcus epidermidis, 111168, Mueller-Hinton agar pH 7.2, 32° C., 18 hr, 10^6 cells/ml
Method: as §1, §2, §3, §4

S. epidermidis 11-1230 = conditions: Staphylococcus epidermidis, 111230, Mueller-Hinton agar pH 7.2, 32° C., 18 hr, 10^6 cells/ml
Method: as §1, §2, §3, §4

S. marcescens IPM-15 = conditions: Serratia marcescens, IPM15, Mueller-Hinton agar pH 7.2, 32° C., 18 hr, 10^6 cells/ml
Method: as §1, §2, §3, §4

S. marcescens IPM-16 = conditions: Serratia marcescens, IPM16, Mueller-Hinton agar pH 7.2, 32° C., 18 hr, 10^6 cells/ml
Method: as §1, §2, §3, §4

X. maltophilia GN 12873 = conditions: Stenotrophomonas maltophilia, GN12873, Mueller-Hinton agar pH 7.2, 32° C., 18 hr, 10^6 cells/ml
Method: as §1, §2, §3, §4

X. maltophilia No. 661 = conditions: Stenotrophomonas maltophilia, Mueller-Hinton agar pH 7.2, 32° C., 18 hr, 10^6 cells/ml
Method: as §1, §2, §3, §4

E. coli Juhl A15119 = conditions: Escherichia coli, JUHLA15119; E. coli Juhl A15119; Mueller-Hinton agar pH 7.2; 32° C., 18 hr; 10^6 cells/ml; read-out: MIC
Outline: (§5)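 Two-fold serial agar dilution in Mueller-Hinton agar (pH 7.2), inoculum 10^6 cells/ml, incubated 32° C for 18 hr. In vivo protection measured as PD50 in mice dosed intramuscularly just after bacterial challenge.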

P. aeruginosa A9843A = conditions: Pseudomonas aeruginosa, A9843A, 18 h, pH 7.2
Outline: as §5

S. aureus Smith = conditions: Staphylococcus aureus; S. aureus Smith; Mueller-Hinton agar pH 7.2; 32° C., 18 hr; 10^6 cells/ml; read-out: MIC
Outline: as §5

Row | SMILES | MIC (B. subtilis PCI 219) | MIC (C. freundii GN 7391) | MIC (C. terrigena IFO 12685) | MIC (E. cloacae IPM-12) | MIC (E. coli 255) | MIC (E. faecalis A9808) | MIC (E. faecium A24817) | MIC (K. pneumoniae PCI 602) | MIC (M. luteus 1001) | MIC (M. morgani 1510/9) | MIC (M. morgani 1510) | MIC (P. aeruginosa A20599) | MIC (P. aeruginosa IPM-8) | MIC (P. aeruginosa IPM-9) | MIC (P. aeruginosa KKA 19) | MIC (P. cepacia A21213) | MIC (P. cepacia No. 651) | MIC (P. mirabilis IFO-2849) | MIC (P. rettgeri IPM-14) | MIC (P. vulgaris IPM-13) | other results
1 | Nc1nc(/C(=N/O)C(=O)NC2C(=O)N3C(C(=O)O)=C(/C=C/Cn4cnc5cc(O)c(O)cc54)CS[C@H]23)cs1 (stereo partly shown) [Ir, 7-[(Z)-2-(2-Aminothiazol-4-yl)-2-hydroxyiminoacetamido]-3-[(E)-3-(5,6-dihydroxybenzimidazol-1-yl)-1-propen-1-yl]-3-cephem-4-carboxylic acid] | 1.6 µg/mL (≈ 2.87 µM) | 50 µg/mL (≈ 89.7 µM) | 3.1 µg/mL (≈ 5.56 µM) | > 100 µg/mL | 0.8 µg/mL (≈ 1.43 µM) | 12.5 µg/mL (≈ 22.4 µM) | > 100 µg/mL | 0.1 µg/mL (≈ 0.179 µM) | 0.8 µg/mL (≈ 1.43 µM) | 0.8 µg/mL (≈ 1.43 µM) | 25 µg/mL (≈ 44.8 µM) | 12.5 µg/mL (≈ 22.4 µM) | 3.1 µg/mL (≈ 5.56 µM) | > 100 µg/mL | 12.5 µg/mL (≈ 22.4 µM) | > 100 µg/mL | > 100 µg/mL | 0.8 µg/mL (≈ 1.43 µM) | 3.1 µg/mL (≈ 5.56 µM) | > 100 µg/mL | MIC (S. aureus 209P; 209P, 18 h, pH 7.2): 3.1 µg/mL (≈ 5.56 µM); MIC (S. aureus 4-1015 (MRSA)): 12.5 µg/mL (≈ 22.4 µM); MIC (S. aureus IPM-24 (MRSA)): 100 µg/mL (≈ 179 µM); MIC (S. epidermidis 11-1168): 12.5 µg/mL (≈ 22.4 µM); MIC (S. epidermidis 11-1230): 12.5 µg/mL (≈ 22.4 µM); MIC (S. marcescens IPM-15): 100 µg/mL (≈ 179 µM); MIC (S. marcescens IPM-16): > 100 µg/mL; MIC (X. maltophilia GN 12873): > 100 µg/mL; MIC (X. maltophilia No. 661): > 100 µg/mL; MIC (E. coli Juhl A15119): 0.4 µg/mL (≈ 0.717 µM); MIC (P. aeruginosa A9843A): 6.3 µg/mL (≈ 11.3 µM); MIC (S. aureus Smith): 1.6 µg/mL (≈ 2.87 µM)
2 | Nc1nc(/C(=N/O)C(=O)NC2C(=O)N3C(C(=O)O)=C(/C=C/Cn4ccc5cc(=O)c(O)cc-5c4)CS[C@H]23)cs1 (stereo partly shown) [Is, 7-[(Z)-2-(2-Aminothiazol-4-yl)-2-hydroxyiminoacetamido]-3-[(E)-3-(2,6-dihydro-7-hydroxy-6-oxo-isoquinolin-2-yl)-1-propen-1-yl]-3-cephem-4-carboxylic acid] | 0.8 µg/mL (≈ 1.41 µM) | > 100 µg/mL | 1.6 µg/mL (≈ 2.81 µM) | > 100 µg/mL | 0.4 µg/mL (≈ 0.703 µM) | 6.3 µg/mL (≈ 11.1 µM) | 100 µg/mL (≈ 176 µM) | 0.1 µg/mL (≈ 0.176 µM) | 0.4 µg/mL (≈ 0.703 µM) | 0.2 µg/mL (≈ 0.352 µM) | 12.5 µg/mL (≈ 22 µM) | > 100 µg/mL | > 100 µg/mL | > 100 µg/mL | > 100 µg/mL | > 100 µg/mL | > 100 µg/mL | 0.4 µg/mL (≈ 0.703 µM) | 1.6 µg/mL (≈ 2.81 µM) | > 100 µg/mL | MIC (S. aureus 209P; S. aureus 209P, Mueller-Hinton agar pH 7.2, 32° C., 18 hr, 10^6 cells/ml, read-out: MIC): 0.8 µg/mL (≈ 1.41 µM); MIC (S. aureus 4-1015 (MRSA)): 3.1 µg/mL (≈ 5.45 µM); MIC (S. aureus IPM-24 (MRSA)): 12.5 µg/mL (≈ 22 µM); MIC (S. epidermidis 11-1168): 6.3 µg/mL (≈ 11.1 µM); MIC (S. epidermidis 11-1230): 3.1 µg/mL (≈ 5.45 µM); MIC (S. marcescens IPM-15): > 100 µg/mL; MIC (S. marcescens IPM-16): > 100 µg/mL; MIC (X. maltophilia GN 12873): > 100 µg/mL; MIC (X. maltophilia No. 661): > 100 µg/mL; MIC (E. coli Juhl A15119): 0.2 µg/mL (≈ 0.352 µM); MIC (P. aeruginosa A9843A): > 100 µg/mL; MIC (S. aureus Smith): 0.8 µg/mL (≈ 1.41 µM)
